Test results as given in publication PMC4685510, “A Cell Biologist’s Field Guide to Aurora Kinase Inhibitors” (Frontiers in Oncology, 2015).
Read-outs that look alike come from different tables or passages of the source.

Key:
Assay in all cases: biochemical
Format in all cases: biochemical
[1] = biological target: T1, 363 human kinases (including Aurora A/B/C) (Homo sapiens, UniProt P54753); details: EPHB3, [ATP] 50 µM; for remaining activity at 0.1 µM: 100 nM; for remaining activity at 0.1 µM / remaining activity at 0.5 µM: read-out: % Enzyme Activity (relative to DMSO controls)
T1 sequence (P54753 34-998): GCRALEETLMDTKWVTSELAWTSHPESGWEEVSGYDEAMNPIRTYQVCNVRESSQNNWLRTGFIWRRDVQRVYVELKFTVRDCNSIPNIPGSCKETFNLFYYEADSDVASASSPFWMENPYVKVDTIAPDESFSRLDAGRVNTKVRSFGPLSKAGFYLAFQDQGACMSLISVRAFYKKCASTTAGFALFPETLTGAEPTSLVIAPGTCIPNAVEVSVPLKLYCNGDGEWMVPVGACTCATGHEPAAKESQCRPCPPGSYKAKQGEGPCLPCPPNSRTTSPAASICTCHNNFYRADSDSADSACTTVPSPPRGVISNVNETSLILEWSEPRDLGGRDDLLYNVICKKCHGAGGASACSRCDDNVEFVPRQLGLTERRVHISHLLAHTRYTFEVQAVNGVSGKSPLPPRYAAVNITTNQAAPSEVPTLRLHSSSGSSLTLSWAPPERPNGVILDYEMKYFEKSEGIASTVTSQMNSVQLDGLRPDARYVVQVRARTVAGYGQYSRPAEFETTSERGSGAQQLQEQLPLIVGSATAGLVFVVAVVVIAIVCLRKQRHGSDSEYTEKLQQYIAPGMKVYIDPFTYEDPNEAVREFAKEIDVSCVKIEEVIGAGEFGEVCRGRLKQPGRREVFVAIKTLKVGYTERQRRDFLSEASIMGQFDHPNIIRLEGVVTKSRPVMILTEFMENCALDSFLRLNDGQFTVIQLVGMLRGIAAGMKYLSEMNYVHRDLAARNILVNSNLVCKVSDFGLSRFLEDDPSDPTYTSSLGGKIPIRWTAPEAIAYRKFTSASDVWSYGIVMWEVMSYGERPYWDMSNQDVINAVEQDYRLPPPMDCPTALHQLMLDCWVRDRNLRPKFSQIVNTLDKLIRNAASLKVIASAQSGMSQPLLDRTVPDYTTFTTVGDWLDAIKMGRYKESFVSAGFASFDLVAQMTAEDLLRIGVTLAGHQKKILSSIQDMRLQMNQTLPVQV
Description: (§1) However, the Aurora A/B selectivity ratios derived from our in vitro and in vivo data can be compared to prioritize inhibitors.

[2] = biological target: 363 human kinases (including Aurora A/B/C) (Homo sapiens, UniProt Q9Y6M4); details: CK1g3, [ATP] 10 µM; for remaining activity at 0.1 µM: 100 nM; for remaining activity at 0.1 µM / remaining activity at 0.5 µM: read-out: % Enzyme Activity (relative to DMSO controls)
Description: as §1

[3] = biological target: T2, 363 human kinases (including Aurora A/B/C) (Homo sapiens, UniProt Q13043); details: MST1/STK4; for remaining activity at 0.1 µM: 100 nM; for remaining activity at 0.1 µM / remaining activity at 0.5 µM: read-out: % Enzyme Activity (relative to DMSO controls)
T2 sequence (Q13043 1-487): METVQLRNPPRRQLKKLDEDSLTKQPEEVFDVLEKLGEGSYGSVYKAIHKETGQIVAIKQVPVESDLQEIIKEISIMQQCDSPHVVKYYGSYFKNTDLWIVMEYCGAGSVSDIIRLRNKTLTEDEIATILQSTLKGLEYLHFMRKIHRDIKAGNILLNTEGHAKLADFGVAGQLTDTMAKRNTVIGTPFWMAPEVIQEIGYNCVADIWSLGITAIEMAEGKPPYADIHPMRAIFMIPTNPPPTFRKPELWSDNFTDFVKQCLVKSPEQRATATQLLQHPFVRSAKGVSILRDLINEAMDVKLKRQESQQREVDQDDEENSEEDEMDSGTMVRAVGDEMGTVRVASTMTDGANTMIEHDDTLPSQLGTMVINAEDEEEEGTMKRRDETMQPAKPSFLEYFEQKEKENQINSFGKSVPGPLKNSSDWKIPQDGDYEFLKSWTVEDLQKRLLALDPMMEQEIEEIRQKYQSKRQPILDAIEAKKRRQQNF
Description: as §1

[4] = biological target: T3, 363 human kinases (including Aurora A/B/C) (Homo sapiens, UniProt Q8TD19); details: NEK9; for remaining activity at 0.1 µM: 100 nM; for remaining activity at 0.1 µM / remaining activity at 0.5 µM: read-out: % Enzyme Activity (relative to DMSO controls)
T3 sequence (Q8TD19 1-979): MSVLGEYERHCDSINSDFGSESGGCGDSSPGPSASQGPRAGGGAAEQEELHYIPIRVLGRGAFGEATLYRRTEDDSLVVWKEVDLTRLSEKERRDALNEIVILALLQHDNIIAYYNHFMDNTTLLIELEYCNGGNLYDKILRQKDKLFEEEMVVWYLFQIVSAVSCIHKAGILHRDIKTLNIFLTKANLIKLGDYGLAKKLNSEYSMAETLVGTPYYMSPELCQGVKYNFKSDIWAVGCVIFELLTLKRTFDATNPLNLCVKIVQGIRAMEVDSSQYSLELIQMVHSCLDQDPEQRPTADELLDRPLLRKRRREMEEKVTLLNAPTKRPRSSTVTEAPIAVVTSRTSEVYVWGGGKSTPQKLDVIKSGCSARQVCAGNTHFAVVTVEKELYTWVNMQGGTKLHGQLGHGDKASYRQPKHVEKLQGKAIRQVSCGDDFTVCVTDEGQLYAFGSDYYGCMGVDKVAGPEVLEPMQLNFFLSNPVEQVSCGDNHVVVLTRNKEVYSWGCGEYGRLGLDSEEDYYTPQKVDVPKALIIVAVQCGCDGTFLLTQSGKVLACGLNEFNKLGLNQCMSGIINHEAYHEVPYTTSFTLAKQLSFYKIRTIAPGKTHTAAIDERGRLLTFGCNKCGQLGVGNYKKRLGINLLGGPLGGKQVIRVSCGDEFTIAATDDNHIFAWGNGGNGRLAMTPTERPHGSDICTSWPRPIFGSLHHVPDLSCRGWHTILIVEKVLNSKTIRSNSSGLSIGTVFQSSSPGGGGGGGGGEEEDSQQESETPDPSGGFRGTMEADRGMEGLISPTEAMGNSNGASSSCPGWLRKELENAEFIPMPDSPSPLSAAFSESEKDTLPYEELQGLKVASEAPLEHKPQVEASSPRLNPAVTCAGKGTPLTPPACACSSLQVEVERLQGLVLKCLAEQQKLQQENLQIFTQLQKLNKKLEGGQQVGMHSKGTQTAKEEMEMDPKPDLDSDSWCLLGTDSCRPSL
Description: as §1

[5] = biological target: 363 human kinases (including Aurora A/B/C) (Homo sapiens, UniProt Q16816); details: PHKg1; for remaining activity at 0.1 µM: 100 nM; for remaining activity at 0.1 µM / remaining activity at 0.5 µM: read-out: % Enzyme Activity (relative to DMSO controls)
Description: as §1

[6] = biological target: 363 human kinases (including Aurora A/B/C) (Homo sapiens, UniProt P24941); details: for remaining activity at 0.1 µM: 100 nM; for remaining activity at 0.1 µM / remaining activity at 0.5 µM: read-out: % Enzyme Activity (relative to DMSO controls); for remaining activity at 0.5 µM / % Enzyme Activity (relative to DMSO controls): 500 nM
Description: as §1

[7] = biological target: 363 human kinases (including Aurora A/B/C) (Homo sapiens, UniProt Q9Y463); details: DYRK1B, [ATP] 20 µM; for remaining activity at 0.1 µM: 100 nM; for remaining activity at 0.1 µM / remaining activity at 0.5 µM: read-out: % Enzyme Activity (relative to DMSO controls)
363 human kinases (including Aurora A/B/C) (Homo sapiens, UniProt Q9Y463), sequence (Q9Y463 whole entry): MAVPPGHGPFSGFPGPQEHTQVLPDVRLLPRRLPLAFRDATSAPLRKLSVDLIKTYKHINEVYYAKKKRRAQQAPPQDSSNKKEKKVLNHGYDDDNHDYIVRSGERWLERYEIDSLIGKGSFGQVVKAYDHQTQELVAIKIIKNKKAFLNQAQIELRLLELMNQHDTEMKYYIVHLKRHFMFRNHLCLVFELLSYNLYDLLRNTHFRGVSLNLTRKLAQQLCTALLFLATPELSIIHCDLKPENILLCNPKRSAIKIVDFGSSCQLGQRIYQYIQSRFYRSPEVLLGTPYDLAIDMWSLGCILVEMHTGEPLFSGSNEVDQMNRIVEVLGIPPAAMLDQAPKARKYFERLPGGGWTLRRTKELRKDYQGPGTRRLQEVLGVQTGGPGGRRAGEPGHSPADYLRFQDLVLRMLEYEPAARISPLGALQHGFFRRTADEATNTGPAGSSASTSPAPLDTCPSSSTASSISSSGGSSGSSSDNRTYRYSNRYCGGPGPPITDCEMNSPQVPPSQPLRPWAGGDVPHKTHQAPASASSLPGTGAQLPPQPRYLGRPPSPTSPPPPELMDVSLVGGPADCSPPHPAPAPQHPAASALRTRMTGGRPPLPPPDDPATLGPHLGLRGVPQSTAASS
Description: as §1

363 human kinases (including Aurora A/B/C) (Homo sapiens, UniProt Q16816), sequence (Q16816 whole entry): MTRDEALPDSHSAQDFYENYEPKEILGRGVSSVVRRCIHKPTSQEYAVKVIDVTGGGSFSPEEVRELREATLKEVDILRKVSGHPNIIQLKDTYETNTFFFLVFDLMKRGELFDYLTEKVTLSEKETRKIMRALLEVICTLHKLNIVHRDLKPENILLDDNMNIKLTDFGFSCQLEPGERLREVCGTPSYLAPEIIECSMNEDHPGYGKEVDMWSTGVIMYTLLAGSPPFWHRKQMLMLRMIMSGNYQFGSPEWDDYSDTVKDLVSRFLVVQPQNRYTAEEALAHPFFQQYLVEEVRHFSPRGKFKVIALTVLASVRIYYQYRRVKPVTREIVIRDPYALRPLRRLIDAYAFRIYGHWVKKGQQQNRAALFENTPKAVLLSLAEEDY
363 human kinases (including Aurora A/B/C) (Homo sapiens, UniProt Q9Y6M4), sequence (Q9Y6M4 whole entry): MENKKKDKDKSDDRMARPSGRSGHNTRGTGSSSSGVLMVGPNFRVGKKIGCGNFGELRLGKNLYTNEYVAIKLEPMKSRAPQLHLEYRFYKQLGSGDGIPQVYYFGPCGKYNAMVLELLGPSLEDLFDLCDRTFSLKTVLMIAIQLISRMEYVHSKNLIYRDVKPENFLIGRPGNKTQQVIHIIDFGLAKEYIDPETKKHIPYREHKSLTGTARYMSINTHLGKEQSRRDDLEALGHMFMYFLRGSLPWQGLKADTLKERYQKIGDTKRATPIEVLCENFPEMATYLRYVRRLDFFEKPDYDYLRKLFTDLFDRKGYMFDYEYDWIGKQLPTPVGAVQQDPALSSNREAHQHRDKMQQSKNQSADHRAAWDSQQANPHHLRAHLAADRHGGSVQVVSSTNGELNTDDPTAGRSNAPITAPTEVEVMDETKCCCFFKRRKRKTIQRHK

Row | Compound | remaining activity at 0.1 µM [1] | remaining activity at 0.1 µM [2] | remaining activity at 0.1 µM [3] | remaining activity at 0.1 µM [4] | remaining activity at 0.1 µM [5] | remaining activity at 0.1 µM ([6]; CDK2/Cyclin A1, [ATP] 100 µM) | remaining activity at 0.1 µM ([6]; CDK2/cyclin A, [ATP] 100 µM) | remaining activity at 0.1 µM ([6]; CDK2/cyclin E, [ATP] 5 µM) | remaining activity at 0.1 µM ([6]; CDK2/cyclin O, [ATP] 30 µM) | remaining activity at 0.1 µM [7] | remaining activity at 0.5 µM ([1]; 500 nM) | remaining activity at 0.5 µM ([2]; 500 nM) | remaining activity at 0.5 µM ([3]; 500 nM) | remaining activity at 0.5 µM ([4]; 500 nM) | remaining activity at 0.5 µM ([5]; 500 nM) | remaining activity at 0.5 µM ([6]; CDK2/Cyclin A1, [ATP] 100 µM) | remaining activity at 0.5 µM ([6]; CDK2/cyclin A, [ATP] 100 µM) | remaining activity at 0.5 µM ([6]; CDK2/cyclin E, [ATP] 5 µM) | remaining activity at 0.5 µM ([6]; CDK2/cyclin O, [ATP] 30 µM) | remaining activity at 0.5 µM ([7]; 500 nM) | further results
1 | CCn1cc(-c2ccnc3[nH]c(-c4cccc(CN(C)C)c4)cc23)c(-c2ccc(NC(=O)N(C)C)cc2)n1 [GSK1070916] | 94.5% | 95% | 105% | 83.8% | 95.6% | 89.8% | 104% | 93% | 94.7% | 99.6% | – | – | – | – | – | – | – | – | – | – | –
2 | O=C(O)[C@]1(Cc2cccc(Nc3nccs3)n2)CC[C@@H](Oc2cccc(Cl)c2F)CC1 [MK-5108] | 102% | 100% | 81.8% | 95.2% | 99.1% | 100% | 97.7% | 90.3% | 88.6% | 91.7% | 89.5% | 94.6% | 65.6% | 60.7% | 82% | 73.4% | 75.7% | 83.3% | 84.7% | 68.3% | –
3 | O=C(c1cccc(Cl)c1F)N1CCN(Cc2cccc(Nc3nccs3)n2)CC1 [MK-8745] | – | – | – | – | – | – | – | – | – | – | 93% | 98.6% | 46.6% | 96.6% | 93.3% | 79.6% | 85.1% | 86.3% | 90.6% | 95.3% | % Enzyme Activity (relative to DMSO controls) ([1]; 500 nM): 92.59%; % Enzyme Activity (relative to DMSO controls) ([2]; 500 nM): 98.01%; % Enzyme Activity (relative to DMSO controls) ([3]; 500 nM): 46.49%; % Enzyme Activity (relative to DMSO controls) ([4]; 500 nM): 95.13%; % Enzyme Activity (relative to DMSO controls) ([5]; 500 nM): 90.90%; % Enzyme Activity (relative to DMSO controls) ([6]; CDK2/Cyclin A1, [ATP] 100 µM): 75.87%; % Enzyme Activity (relative to DMSO controls) ([6]; CDK2/cyclin A, [ATP] 100 µM): 83.95%; % Enzyme Activity (relative to DMSO controls) ([6]; CDK2/cyclin E, [ATP] 5 µM): 85.62%; % Enzyme Activity (relative to DMSO controls) ([6]; CDK2/cyclin O, [ATP] 30 µM): 90.54%; % Enzyme Activity (relative to DMSO controls) ([7]; 500 nM): 94.80%
